Source: patent US20240293392A1, “INHIBITOR COMPOUNDS” (NeoPhore Limited, priority 2021, published 2024)
Read-outs that look alike come from different tables or passages of the source.

Legend:
[1] = biological target: T1, recombinant N-terminal PMS2 (residues 1-365) (Homo sapiens, UniProt P54278); assay: Fluorescence Polarisation Assay for PMS2; assay type: binding; details: 10 nM N-terminal PMS2, 5 nM probe compound
T1 construct: recombinant N-terminal PMS2 (residues 1-365)
T1 sequence (P54278 1-365): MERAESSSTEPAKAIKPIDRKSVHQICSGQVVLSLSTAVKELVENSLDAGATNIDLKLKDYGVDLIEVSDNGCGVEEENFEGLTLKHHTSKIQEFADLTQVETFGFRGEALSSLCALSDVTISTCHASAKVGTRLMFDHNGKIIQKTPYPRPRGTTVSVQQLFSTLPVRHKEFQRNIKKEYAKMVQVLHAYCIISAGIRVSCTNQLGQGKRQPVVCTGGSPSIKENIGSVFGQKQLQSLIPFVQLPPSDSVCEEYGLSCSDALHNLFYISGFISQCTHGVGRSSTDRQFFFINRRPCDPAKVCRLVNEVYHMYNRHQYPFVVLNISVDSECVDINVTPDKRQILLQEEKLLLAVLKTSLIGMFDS
Experimental: Fluorescence Polarisation Assay for PMS2
For single point screening, test compounds were added to wells in columns 1-22 whilst DMSO was added to wells in columns 23 and 24 in order to normalise the plate. For potency determination, serial dilutions of test compounds were added to wells in columns 3-22 and DMSO volume was normalised across the plate.
20 μL assay buffer was added to all wells in columns 1 and 24 (column 24 only for single point screening) using a MultiDrop Combi (ThermoFisher). Plates were centrifuged for 1 minute at 250×g and were incubated at room temperature for 30 minutes prior to the addition of 20 μL of 2× (20 nM) of 5-((5-(4-((2-(2,4-dihydroxy-5-isopropylbenzoyl)isoindolin-5-yl)methyl)piperazin-1-yl)pentyl)carbamoyl)-2-(6-(dimethylamino)-3-(dimethyliminio)-3H-xanthen-9-yl)benzoate (referred to hereinafter as “probe compound”) in assay buffer (prepared from a 100 μM DMSO stock) with a MultiDrop Combi (ThermoFisher). The final concentration of N-terminal PMS2 was 10 nM and the final concentration of probe compound was 5 nM.
Compound plates were centrifuged for 1 minute at 250×g for 1 minute and were incubated at room temperature for 1 hour before being read on a PheraStar FSX (fitted with 384-well aperture spoon and 540 590 590 FP optic module). The gain and focus were adjusted before each plate was read so that the polarisation of a no enzyme control (column 24) was equal to 35 mP. Data were normalised against the no inhibitor controls (column 23) and no enzyme controls (column 24).

[2] = biological target: T2, recombinant N-terminal MLH1 (residues 15-340) (Homo sapiens, UniProt P40692); assay: Fluorescence Polarisation Assay for MLH1; assay type: binding; details: fluorescence polarisation probe displacement; 100 nM N-terminal MLH1, 5 nM probe compound
T2 construct: recombinant N-terminal MLH1 (residues 15-340)
T2 sequence (P40692 15-340): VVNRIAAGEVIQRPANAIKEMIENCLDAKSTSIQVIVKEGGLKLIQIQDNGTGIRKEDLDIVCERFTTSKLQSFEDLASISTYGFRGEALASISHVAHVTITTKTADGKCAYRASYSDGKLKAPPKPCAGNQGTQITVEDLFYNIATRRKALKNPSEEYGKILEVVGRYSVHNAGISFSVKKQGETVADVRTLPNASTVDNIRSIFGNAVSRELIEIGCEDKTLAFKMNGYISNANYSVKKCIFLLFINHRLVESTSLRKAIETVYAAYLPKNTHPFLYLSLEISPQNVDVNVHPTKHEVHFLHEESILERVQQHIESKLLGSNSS
Experimental: Fluorescence Polarisation Assay for MLH1
Test compounds, as 10 mM DMSO stocks, were dispensed into a 384-well Low Flange Black Flat Bottom Polystyrene Non-binding Surface plate (Corning®, item number 3575) using a Labcyte Echo acoustic liquid handler. Test compounds were added to wells in columns 1-22 whilst DMSO was added to wells in columns 23 and 24 in order to normalise the plate. 20 μL of a 2× solution (200 nM) of recombinant N-terminal MLH1 (residues 15-340) in assay buffer (25 mM HEPES, pH 7.5, 250 mM NaCl, 10 mM MgCl2, 0.01% Triton X-100, 5 mM dithiothreitol) was added to all wells in columns 1-23 and 20 μL assay buffer was added to all wells in column 24 using an E1-ClipTip pipette (ThermoFisher). Plates were centrifuged for 1 minute at 250×g and were incubated at room temperature for 30 minutes prior to the addition of 20 μL of 2× (10 nM) 5-((5-(4-((2-(2,4-dihydroxy-5-isopropylbenzoyl)isoindolin-5-yl)methyl)piperazin-1-yl)pentyl)carbamoyl)-2-(6-(dimethylamino)-3-(dimethyliminio)-3H-xanthen-9-yl)benzoate in assay buffer (prepared from a 1 mM DMSO stock) with an E1-ClipTip pipette (ThermoFisher). The final concentration of N-terminal MLH1 was 100 nM and the final concentration of the probe compound was 5 nM. Compound plates were centrifuged for 1 minute at 250×g for 1 minute and immediately read on a PheraStar FSX (fitted with 384-well aperture spoon and 590 675 675 FP optic module). The gain and focus were adjusted before each plate was read so that the polarisation of a no enzyme control (column 24) was equal to 35 mP. Data were normalised against the no inhibitor controls (column 23) and no enzyme controls (column 24).

[3] = fluorescence polarisation probe displacement, read-out: PMS2 IC50

| SMILES | IC50 [1, 3] | IC50 [2] | IC50 ([1]; PMS2 IC50, fluorescence polarisation probe displacement) |
| --- | --- | --- | --- |
| O=C(c1c(O)cc(O)cc1OCc1ccccc1)N1CCc2cccc(Nc3ccc(=O)[nH]c3)c2C1 [Example 134, 5-((2-(2-(Benzyloxy)-4,6-dihydroxybenzoyl)-1,2,3,4-tetrahydroisoquinolin-8-yl)amino)pyridin-2(1H)-one] | > 10 µM | < 1 µM |  |
| CN1C[C@@H](Nc2cccc3c2CN(C(=O)c2c(O)cc(O)cc2OCc2ccccn2)CC3)CC1=O [Example 58, (S)-4-((2-(2,4-Dihydroxy-6-(pyridin-2-ylmethoxy)benzoyl)-1,2,3,4-tetrahydroisoquinolin-8-yl)amino)-1-methylpyrrolidin-2-one] | > 10 µM | < 1 µM |  |
| CN(c1cccc2c1CN(C(=O)c1c(O)cc(O)cc1OCc1ccccc1)CC2)C1CCOC1 (stereo not drawn) [Example 143, (2-(Benzyloxy)-4,6-dihydroxyphenyl)(8-(methyl(tetrahydrofuran-3-yl)amino)-3,4-dihydroisoquinolin-2(1H)-yl)methanone] | > 10 µM | > 10 µM |  |
| O=C(c1c(O)cc(O)cc1OCc1ccccc1)N1Cc2ccccc2C(O)C1 (single isomer, unassigned) [Example 50, (2-Benzyloxy-4,6-dihydroxy-phenyl)-(4-hydroxy-3,4-dihydro-1H-isoquinolin-2-yl)methanone] | > 10 µM | 1 to 10 µM |  |
| CN1CC(Nc2cccc3c2CN(C(=O)c2c(O)cc(O)cc2OCc2ccccc2)CC3)CCC1=O (stereo not drawn) [Example 70, 5-((2-(2-(Benzyloxy)-4,6-dihydroxybenzoyl)-1,2,3,4-tetrahydroisoquinolin-8-yl)amino)-1-methylpiperidin-2-one] | > 10 µM | < 1 µM |  |
| CCOc1cc(O)cc(O)c1C(=O)N1Cc2cccc(NC3CCOC3)c2C1 (stereo not drawn) [Example 17, (2-Ethoxy-4,6-dihydroxyphenyl)(4-((tetrahydrofuran-3-yl)amino)isoindolin-2-yl)methanone] |  | < 1 µM | > 10 µM |
| O=C(c1c(O)cc(O)cc1OCC1CC1)N1Cc2cccc(NC3CCOC3)c2C1 (stereo not drawn) [Example 25, (2-(Cyclopropylmethoxy)-4,6-dihydroxyphenyl)(4-((tetrahydrofuran-3-yl)amino)isoindolin-2-yl)methanone] | 1 to 10 µM | < 1 µM |  |
| COc1cc2c(c(NC3CCOC3)c1)CN(C(=O)c1c(O)cc(O)cc1OCc1ccccc1)CC2 (single isomer, unassigned) [Example 72, (2-(Benzyloxy)-4,6-dihydroxyphenyl)(6-methoxy-8-((tetrahydrofuran-3-yl)amino)-3,4-dihydroisoquinolin-2(1H)-yl)methanone] | 1 to 10 µM | < 1 µM |  |
| O=C(c1c(O)cc(O)cc1OCc1ccccc1)N1CCc2cccc(NC3COC3)c2C1 [Example 41, (2-(Benzyloxy)-4,6-dihydroxyphenyl)(8-(oxetan-3-ylamino)-3,4-dihydroisoquinolin-2(1H)-yl)methanone] | 1 to 10 µM | < 1 µM |  |

Now from value to compound, other results behind:

| IC50 [1, 3] | IC50 [2] | SMILES | IC50 ([1]; PMS2 IC50, fluorescence polarisation probe displacement) |
| --- | --- | --- | --- |
| 1 to 10 µM | 1 to 10 µM | CNc1cccc2c1CN(C(=O)c1c(O)cc(O)cc1OCc1ccccc1)C2 [Example 29, (2-(Benzyloxy)-4,6-dihydroxyphenyl)(4-(methylamino)isoindolin-2-yl)methanone] |  |
| 1 to 10 µM | 1 to 10 µM | O=C(c1c(O)cc(O)cc1OCc1ccccc1)N1CCc2ccc(CNC3COC3)cc2C1 [Example 84, (2-(Benzyloxy)-4,6-dihydroxyphenyl)(7-((oxetan-3-ylamino)methyl)-3,4-dihydroisoquinolin-2(1H)-yl)methanone] |  |
| 1 to 10 µM | < 1 µM | O=C(c1c(O)cc(O)cc1OCc1ccccc1)N1Cc2cccc(NC3CCCOC3)c2C1 (stereo not drawn) [Example 14, (2-(Benzyloxy)-4,6-dihydroxyphenyl)(4-((tetrahydro-2H-pyran-3-yl)amino)isoindolin-2-yl)methanone] |  |
| < 1 µM | < 1 µM | O=C(c1c(O)cc(O)cc1OCc1ccccc1)N1Cc2ccc(CN3CCOCC3)cc2C1 [Example 12, (2-(Benzyloxy)-4,6-dihydroxyphenyl)(5-(morpholinomethyl)isoindolin-2-yl)methanone] |  |
| 1 to 10 µM | < 1 µM | Cn1ncc(Nc2cccc3c2CN(C(=O)c2c(O)cc(O)cc2OCc2ccccc2)C3)n1 [Example 35, (2-(Benzyloxy)-4,6-dihydroxyphenyl)(4-((2-methyl-2H-1,2,3-triazol-4-yl)amino)isoindolin-2-yl)methanone] |  |
| 1 to 10 µM | < 1 µM | COCCNc1cccc2c1CN(C(=O)c1c(O)cc(O)cc1OCc1ccccc1)CC2 [Example 44, (2-(Benzyloxy)-4,6-dihydroxyphenyl)(8-((2-methoxyethyl)amino)-3,4-dihydroisoquinolin-2(1H)-yl)methanone] |  |
| 1 to 10 µM | < 1 µM | O=C(c1c(O)cc(O)cc1OCc1ccccc1)N1Cc2cccc(NC3CCCOC3)c2C1 (single isomer, unassigned) [Example 30, (2-(Benzyloxy)-4,6-dihydroxyphenyl)(4-((tetrahydro-2H-pyran-3-yl)amino)isoindolin-2-yl)methanone] |  |
| < 1 µM | < 1 µM | CN(C)Cc1cc2c(c(N[C@H]3CCOC3)c1)CN(C(=O)c1c(O)cc(O)cc1OCc1ccccc1)CC2 [Example 125, (S)-(2-(Benzyloxy)-4,6-dihydroxyphenyl)(6-((dimethylamino)methyl)-8-((tetrahydrofuran-3-yl)amino)-3,4-dihydroisoquinolin-2(1H)-yl)methanone] |  |
| 1 to 10 µM | < 1 µM | COc1ccc(COc2cc(O)cc(O)c2C(=O)N2Cc3cccc(NC4CCOC4)c3C2)cc1 (stereo not drawn) [Example 39, (2,4-Dihydroxy-6-((4-methoxybenzyl)oxy)phenyl)(4-((tetrahydrofuran-3-yl)amino)isoindolin-2-yl)methanone] |  |
| 1 to 10 µM | 1 to 10 µM | CC(=O)Nc1cccc2c1CN(C(=O)c1c(O)cc(O)cc1OCc1ccccc1)C2 [Example 94, N-(2-(2-(benzyloxy)-4,6-dihydroxybenzoyl)isoindolin-4-yl)acetamide] |  |
| < 1 µM | < 1 µM | CN(C)C(=O)c1cc2c(c(N[C@H]3CCOC3)c1)CN(C(=O)c1c(O)cc(O)cc1OCc1ccccc1)CC2 [Example 130, (S)-2-(2-(Benzyloxy)-4,6-dihydroxybenzoyl)-N,N-dimethyl-8-((tetrahydrofuran-3-yl)amino)-1,2,3,4-tetrahydroisoquinoline-6-carboxamide] |  |
| < 1 µM | < 1 µM | O=C(c1c(O)cc(O)cc1OCc1ccccc1)N1Cc2cccc(Nc3cncnc3)c2C1 [Example 19, (2-(Benzyloxy)-4,6-dihydroxyphenyl)(4-(pyrimidin-5-ylamino)isoindolin-2-yl)methanone] |  |
